# From patent US20090124640A1, “Pyrrolo[3,2-D]Pyrimidin-4-One Derivative as Myeloperoxidase Inhibitor” (ASTRAZENECA AB, priority 2006, published 2009)
# pIC50: −log10 of the molar value.
# Target: T1, human MPO (Homo sapiens, UniProt P05164)
# T1 sequence (P05164 49-745): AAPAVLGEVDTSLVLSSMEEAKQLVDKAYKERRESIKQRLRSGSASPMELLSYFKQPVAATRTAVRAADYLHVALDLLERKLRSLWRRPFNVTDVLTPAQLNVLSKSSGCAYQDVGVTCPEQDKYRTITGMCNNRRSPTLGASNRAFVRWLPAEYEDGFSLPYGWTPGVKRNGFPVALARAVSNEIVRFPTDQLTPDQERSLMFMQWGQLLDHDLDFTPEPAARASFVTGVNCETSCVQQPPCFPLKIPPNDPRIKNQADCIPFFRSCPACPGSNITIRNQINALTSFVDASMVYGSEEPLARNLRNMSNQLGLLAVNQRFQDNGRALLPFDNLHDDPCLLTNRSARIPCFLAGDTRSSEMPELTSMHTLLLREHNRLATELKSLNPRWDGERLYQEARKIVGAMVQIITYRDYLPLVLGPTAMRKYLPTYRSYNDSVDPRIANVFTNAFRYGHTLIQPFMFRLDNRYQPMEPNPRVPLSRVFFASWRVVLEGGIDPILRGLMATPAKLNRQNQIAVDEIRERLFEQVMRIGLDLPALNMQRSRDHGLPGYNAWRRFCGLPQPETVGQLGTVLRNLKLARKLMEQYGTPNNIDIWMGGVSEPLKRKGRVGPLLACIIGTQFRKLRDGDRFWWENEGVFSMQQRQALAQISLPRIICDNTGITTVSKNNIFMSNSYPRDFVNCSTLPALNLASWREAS
# Test: MPO inhibition screen (TMB oxidation, absorbance)
# Type: biochemical
# Conditions: at least one version of the screen (compound alone or with added tyrosine, 8 μM final); human MPO 2.5 nM, H2O2 100 μM, pH 6.5
# Procedure: Methods for the determination of MPO inhibitory activity are disclosed in patent application WO 02/090575. The pharmacological activity of compounds according to the invention was tested in the following screen in which the compound was either tested alone or in the presence of added tyrosine:
# Assay buffer: 20 mM sodium/potassium phosphate buffer pH 6.5 containing 10 mM taurine and 100 mM NaCl.
# Developing reagent: 2 mM 3,3′,5,5′-tetramethylbenzidine (TMB), 200 μM KI, 200 mM acetate buffer pH 5.4 with 20% DMF.
# To 10 μl of diluted compounds in assay buffer, 40 μL of human MPO (final concentration 2.5 nM), with or without 20 μM tyrosine (final concentration, if present, 8 μM), was added and the mixture was incubated for 10 minutes at ambient temperature. Then 50 μl of H2O2 (final concentration 100 μM), or assay buffer alone as a control, were added. After incubation for 10 minutes at ambient temperature, the reaction was stopped by adding 10 μl 0.2 mg/ml of catalase (final concentration 18 μg/ml). The reaction mixture was left for an additional 5 minutes before 100 μl of TMB developing reagent was added. The amount of oxidised 3,3′,5,5′-tetramethylbenzidine formed was then measured after about 5 minutes using absorbance spectroscopy at about […]. IC50 values were then determined using standard procedures.
smiles,measurement,value
"O=c1[nH]c(=S)n(CCO)c2cc[nH]c12 [Example 1, 1-(2-Hydroxyethyl)-2-thioxo-1,2,3,5-tetrahydro-4H-pyrrolo[3,2-d]pyrimidin-4-one]",pIC50,> 5.30
